Reference: the supplement of paper PMC5844555

How the values were obtained:
Experiment in all cases: 3' UTR reporter interaction score (median-centred robust z-score of log2 firefly/Renilla activity); higher = less repression of the 3' UTR reporter
Details in all cases: HEK293T; 48 h
MYC = system: MYC
Method in brief: (§1)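 A firefly luc2P reporter carrying the gene's 3' UTR (100 ng), Renilla pRL-TK control (20 ng) and miRNA mimic (2.5 pmol) were co-transfected with DharmaFECT Duo into HEK293T cells plated at 10,000/well in 96-well plates. Luciferase activities were read 48 h post-transfection. The interaction score is the log firefly/Renilla ratio as a per-plate robust z-score from median and median absolute deviation, median-centred per miRNA, and more negative indicates interaction. Values are averages of at least two independent screens.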

NOTCH1 = system: NOTCH1
Method in brief: as §1

EZH2 = system: EZH2
Method in brief: as §1

FBXW7 = system: FBXW7
Method in brief: as §1

PHF6 = system: PHF6
Method in brief: as §1

MYCN = system: MYCN
Method in brief: as §1

MYT1L = system: MYT1L
Method in brief: as §1

ZEB2 = system: ZEB2
Method in brief: as §1

HRAS = system: HRAS
Method in brief: as §1

RB1 = system: RB1
Method in brief: as §1

TP53 = system: TP53
Method in brief: as §1

BRCA2 = system: BRCA2
Method in brief: as §1

MYB = system: MYB
Method in brief: as §1

PHOX2B = system: PHOX2B
Method in brief: as §1

Sequence | 3' UTR reporter interaction score (MYC) | 3' UTR reporter interaction score (NOTCH1) | 3' UTR reporter interaction score (EZH2) | 3' UTR reporter interaction score (FBXW7) | 3' UTR reporter interaction score (PHF6) | 3' UTR reporter interaction score (MYCN) | 3' UTR reporter interaction score (MYT1L) | 3' UTR reporter interaction score (ZEB2) | 3' UTR reporter interaction score (HRAS) | 3' UTR reporter interaction score (RB1) | 3' UTR reporter interaction score (TP53) | 3' UTR reporter interaction score (BRCA2) | 3' UTR reporter interaction score (MYB) | 3' UTR reporter interaction score (PHOX2B)
UAAAGUGCUUAUAGUGCAGGUAG | -0.207 | 0.917 | -0.364 | -0.632 | 1.96 | -0.791 | -0.414 | 0.262 | 0.379 | 0.204 | -0.181 | 1.9 | -0.124 | –
UAAGGCACCCUUCUGAGUAGA | -0.593 | -0.104 | -2.69 | 0.601 | -0.903 | -0.435 | 1.04 | 0.807 | 0.999 | -1.28 | -0.0578 | 0.5 | – | 1.39
UACGUCAUCGUUGUCAUCGUCA | -0.111 | -0.131 | -0.223 | 0.256 | -0.457 | -1.02 | – | -2.2 | 0.167 | 0.229 | 0.00955 | 0.347 | -0.203 | 0.31
UAGCAGCACAUAAUGGUUUGUG | 1.03 | 0.0154 | – | -3.3 | 1 | -0.121 | -2.1 | 1.33 | 1.55 | -0.091 | -0.405 | -0.161 | -1.32 | 0.742
UAGGUAGUUUCCUGUUGUUGG | -0.416 | 0.244 | 0.324 | -0.0724 | -0.855 | – | -0.34 | 0.639 | -0.324 | -0.415 | 0.913 | -0.449 | 0.0231 | 0.179
UAGUAGACCGUAUAGCGUACG | -0.638 | 1.8 | -0.435 | -0.321 | 0.821 | 0.359 | 1.28 | 2.18 | -0.49 | 0.459 | 0.138 | -0.367 | 1.44 | –
UAUUGCACAUUACUAAGUUGC | 0.647 | -0.36 | -1.18 | -3.29 | 0.521 | 1.19 | 0.0117 | -0.436 | -0.69 | 0.119 | -0.165 | 0.064 | – | –
UCUCACACAGAAAUCGCACCCGUC | -3.89 | 0.283 | – | -0.236 | 0.199 | -1.33 | -0.241 | 0.106 | -1.52 | -0.308 | -0.669 | 1 | 0.485 | 0.123
UCUGCUCAUACCCCAUGGUUUCU | 0.772 | -0.475 | 0.623 | -0.521 | 1.4 | -0.385 | -0.849 | -0.101 | -0.642 | 1.62 | 0.807 | 1.96 | -1.65 | –
UGAGGUAGGAGGUUGUAUAGU | -2.75 | -0.642 | -3.52 | 0.127 | -0.232 | -3.52 | -0.34 | -0.156 | 0.649 | – | 0.0915 | 0.75 | 0.624 | 0.238
UGAGGUAGUAGGUUGUAUGGUU | -2.26 | – | -3.88 | 0.348 | 0.487 | -4.05 | 0.588 | 0.734 | 0.339 | – | -0.643 | 0.199 | 0.761 | -0.072
UGAUUGUAGCCUUUUGGAGUAGA | -1.19 | – | 0.191 | -0.741 | 0.465 | 0.938 | -0.331 | -1.2 | 1.52 | -0.751 | -0.415 | 1.26 | 1.56 | -0.496
UGUAAACAUCCUCGACUGGAAG | -0.476 | – | 0.0496 | 0.336 | -2.11 | -0.46 | 0.672 | -1.69 | 0.246 | 0.575 | -0.35 | -0.114 | 0.498 | –
UGUAACAGCAACUCCAUGUGGA | -1.28 | -0.0483 | -1.3 | -1.43 | 1.94 | 0.331 | -0.161 | 0.401 | – | -0.726 | -0.515 | 0.232 | 0.809 | -2.2
UGUCUUACUCCCUCAGGCACAU | -0.519 | – | -0.24 | 1.02 | 2.68 | -1.1 | -2.22 | -0.976 | -1.06 | 0.999 | 0.565 | 0.202 | -0.229 | 0.667
UUCUCCAAAAGGGAGCACUUUC | -0.329 | -0.166 | -0.381 | -0.759 | -0.0417 | 0.94 | 2.01 | 1.08 | 0.596 | 1.31 | -0.24 | -0.958 | -0.361 | –
UUGAAACAAUCUCUACUGAAC | 0.402 | 0.836 | 0.163 | 1.05 | -1.21 | – | 0.3 | 0.917 | -0.263 | -1.43 | -0.126 | -0.93 | -0.218 | 0.857
UUGUGUCAAUAUGCGAUGAUGU | 0.588 | – | 0.77 | -1.37 | 0.901 | -0.328 | -0.212 | 0.639 | 1.07 | 0.229 | -0.384 | -0.078 | -0.649 | -1.6
UUUGGCACUAGCACAUUUUUGC | 0.306 | 0.319 | 0.814 | -1.69 | -0.863 | 0.288 | -0.203 | 0.198 | 0.722 | 0.451 | -0.115 | 0.322 | – | 0.531
UUUGUGACCUGGUCCACUAACC | -1.92 | 0.65 | 0.358 | -0.879 | 0.815 | 0.167 | -0.568 | 0.152 | – | 0.728 | -1.6 | -0.491 | 0.254 | 0
